Reference: patent publication US20260217767A1, “NOVEL A4B7 THIOETHER PEPTIDE DIMER ANTAGONISTS” (Protagonist Therapeutics, Inc., priority 2014, published 2026)
pIC50: −log10 of the molar value. *1 amine or outer side, *2 acyl side, *3 side chain or, on linkers, in order; H or OH if unused. Where a SMILES comes first, the peptide text is derived from it. Bridges are numbered along the chain shown (N, C = ends). Roman numbers before positions name the chains, in order. [ ]: non-standard residue; d: D form. Phe(4-CF3) = N[C@@H](Cc1ccc(C(F)(F)F)cc1)C(=O)O; 1Nal = N[C@@H](Cc1cccc2ccccc12)C(=O)O; Diglycolyl = O=C(COCC(=O)[*:2])[*:1]; NMeR = CN[C@@H](CCCNC(=N)N)C(=O)O; X1 = O=C(c1ccccc1C[*:2])[*:1]; Pen = CC(C)(S)[C@H](N)C(=O)O; hCys = N[C@@H](CCS)C(=O)O

What follows are compounds tested against T1, RPMI 8866 cells (Homo sapiens, UniProt P13612+P26010) (assay: α4β7-MAdCAM Cell Adhesion Assay). Conditions: thioether monomer peptides, Table 6; read-out: Cell-Adhesion A4B7.
T1 sequence (P13612 34-1032): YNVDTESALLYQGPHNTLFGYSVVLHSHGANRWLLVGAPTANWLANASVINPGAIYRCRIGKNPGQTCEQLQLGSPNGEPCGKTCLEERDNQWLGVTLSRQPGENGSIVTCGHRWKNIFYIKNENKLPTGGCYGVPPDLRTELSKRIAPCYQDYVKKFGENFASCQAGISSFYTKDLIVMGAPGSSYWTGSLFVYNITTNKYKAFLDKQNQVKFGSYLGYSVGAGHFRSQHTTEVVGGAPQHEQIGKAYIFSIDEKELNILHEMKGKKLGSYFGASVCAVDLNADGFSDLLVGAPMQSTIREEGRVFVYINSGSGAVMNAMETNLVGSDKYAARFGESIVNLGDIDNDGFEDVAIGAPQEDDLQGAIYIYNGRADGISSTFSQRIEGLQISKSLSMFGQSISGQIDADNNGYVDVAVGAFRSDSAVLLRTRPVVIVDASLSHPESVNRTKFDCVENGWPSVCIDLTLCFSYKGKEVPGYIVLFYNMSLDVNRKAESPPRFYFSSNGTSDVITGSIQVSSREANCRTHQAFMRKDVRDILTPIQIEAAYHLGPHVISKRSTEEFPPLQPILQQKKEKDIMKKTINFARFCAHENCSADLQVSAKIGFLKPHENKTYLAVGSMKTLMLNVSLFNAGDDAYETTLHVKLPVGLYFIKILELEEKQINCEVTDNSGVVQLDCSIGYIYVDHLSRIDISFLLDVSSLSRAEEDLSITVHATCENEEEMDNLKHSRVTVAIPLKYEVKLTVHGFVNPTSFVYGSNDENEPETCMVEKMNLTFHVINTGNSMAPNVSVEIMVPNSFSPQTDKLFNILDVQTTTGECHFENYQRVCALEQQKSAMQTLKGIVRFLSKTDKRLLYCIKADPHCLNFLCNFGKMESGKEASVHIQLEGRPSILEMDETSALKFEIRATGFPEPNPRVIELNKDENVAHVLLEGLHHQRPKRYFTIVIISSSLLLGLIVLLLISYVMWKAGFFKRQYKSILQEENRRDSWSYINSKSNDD
T1 sequence (P26010 20-798): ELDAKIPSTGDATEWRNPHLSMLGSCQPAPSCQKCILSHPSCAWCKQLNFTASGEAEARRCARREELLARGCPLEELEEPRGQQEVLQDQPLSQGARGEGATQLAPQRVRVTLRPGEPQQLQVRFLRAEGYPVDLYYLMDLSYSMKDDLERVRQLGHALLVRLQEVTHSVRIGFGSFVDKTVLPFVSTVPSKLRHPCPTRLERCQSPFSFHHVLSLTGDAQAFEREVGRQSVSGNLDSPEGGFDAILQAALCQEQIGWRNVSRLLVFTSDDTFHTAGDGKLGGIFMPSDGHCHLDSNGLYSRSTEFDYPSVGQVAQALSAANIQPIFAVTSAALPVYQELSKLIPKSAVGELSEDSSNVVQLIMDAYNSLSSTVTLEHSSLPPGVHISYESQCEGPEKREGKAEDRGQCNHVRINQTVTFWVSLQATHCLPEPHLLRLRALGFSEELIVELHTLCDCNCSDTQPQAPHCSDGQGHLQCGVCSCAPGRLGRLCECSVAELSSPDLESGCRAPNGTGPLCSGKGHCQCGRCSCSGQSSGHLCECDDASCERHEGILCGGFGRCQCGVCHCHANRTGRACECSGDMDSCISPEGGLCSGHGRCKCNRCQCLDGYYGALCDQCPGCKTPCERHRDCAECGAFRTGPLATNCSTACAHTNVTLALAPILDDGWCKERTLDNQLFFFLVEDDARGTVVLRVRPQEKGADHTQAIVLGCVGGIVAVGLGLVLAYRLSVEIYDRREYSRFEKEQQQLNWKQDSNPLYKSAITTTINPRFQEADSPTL
Type: cell-based
Procedure, shortened: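 RPMI 8866 cells (200,000/well) in DMEM with 1 mM MnCl2 and 0.1% BSA were allowed to adhere 30-45 min at 37° C to plates coated with rh MAdCAM-1/Fc (200 ng/well) in presence of serially diluted peptide. After washing, bound cells quantified by MTT, absorbance 570 nm, cell-free background subtracted.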

`CC(C)C[C@@H]1NC(=O)[C@H]([C@@H](C)O)NC(=O)[C@H](CC(=O)O)NC(=O)[C@H](CO)NC(=O)[C@H](CCCNC(=N)N)N(C)C(=O)c2ccccc2CSC(C)(C)[C@@H](C(=O)N[C@@H](Cc2c[nH]c3ccccc23)C(=O)N[C@H](CCC(=O)O)C(=O)N[C@H](CCC(=O)O)C(N)=O)NC1=O` [compound 108] (HELM PEPTIDE1{[meR].S.D.T.L.[Pen].W.[dE].[dE].[am]}|CHEM1{[O=C(c1ccccc1C[*:2])[*:1]]}$PEPTIDE1,CHEM1,1:R1-1:R1|PEPTIDE1,CHEM1,6:R3-1:R2$$$V2.0) and `CC(C)C[C@@H]1NC(=O)[C@H]([C@@H](C)O)NC(=O)[C@H](CC(=O)O)NC(=O)[C@H](CO)NC(=O)[C@H](CCCNC(=N)N)N(C)C(=O)c2ccccc2CSC(C)(C)[C@@H](C(=O)N[C@@H](Cc2c[nH]c3ccccc23)C(=O)N[C@@H](CCC(=O)O)C(=O)N[C@@H](CCN)C(N)=O)NC1=O` [compound 93] (HELM PEPTIDE1{[meR].S.D.T.L.[Pen].W.E.[Dab].[am]}|CHEM1{[O=C(c1ccccc1C[*:2])[*:1]]}$PEPTIDE1,CHEM1,1:R1-1:R1|PEPTIDE1,CHEM1,6:R3-1:R2$$$V2.0) fall in the same range of pIC50: 7.00 to 7.60 for the first, 7.00 to 7.60 for the second.

`CC(C)C[C@@H]1NC(=O)[C@H]([C@@H](C)O)NC(=O)[C@H](CC(=O)O)NC(=O)[C@H](CO)NC(=O)[C@H](CCCNC(=N)N)N(C)C(=O)c2ccccc2CSC(C)(C)[C@@H](C(=O)N[C@@H](Cc2c[nH]c3ccccc23)C(=O)N[C@H](CCC(=O)O)C(=O)N[C@H](Cc2ccccc2)C(N)=O)NC1=O` [compound 107] (HELM PEPTIDE1{[meR].S.D.T.L.[Pen].W.[dE].[dF].[am]}|CHEM1{[O=C(c1ccccc1C[*:2])[*:1]]}$PEPTIDE1,CHEM1,1:R1-1:R1|PEPTIDE1,CHEM1,6:R3-1:R2$$$V2.0) and `CC(C)C[C@@H]1NC(=O)[C@H]([C@@H](C)O)NC(=O)[C@H](CC(=O)O)NC(=O)[C@H](CO)NC(=O)[C@H](CCCNC(=N)N)N(C)C(=O)c2ccccc2CSC(C)(C)[C@@H](C(=O)N[C@@H](Cc2c[nH]c3ccccc23)C(=O)N[C@H](CCC(=O)O)C(=O)N[C@H](Cc2ccc(O)cc2)C(N)=O)NC1=O` [compound 110] (HELM PEPTIDE1{[meR].S.D.T.L.[Pen].W.[dE].[dY].[am]}|CHEM1{[O=C(c1ccccc1C[*:2])[*:1]]}$PEPTIDE1,CHEM1,1:R1-1:R1|PEPTIDE1,CHEM1,6:R3-1:R2$$$V2.0) fall in the same range of pIC50: 7.00 to 7.60 for the first, 7.00 to 7.60 for the second.

`CC(C)C[C@@H]1NC(=O)[C@H]([C@@H](C)O)NC(=O)[C@H](CC(=O)O)NC(=O)[C@H](CO)NC(=O)[C@H](CCCNC(=N)N)N(C)C(=O)c2ccccc2CSC(C)(C)[C@@H](C(=O)N[C@@H](Cc2c[nH]c3ccccc23)C(=O)N[C@H](CCC(=O)O)C(=O)N[C@@H](CN)C(N)=O)NC1=O` [compound 94] (HELM PEPTIDE1{[meR].S.D.T.L.[Pen].W.[dE].[NC[C@H](N[*:1])C(=O)[*:2]].[am]}|CHEM1{[O=C(c1ccccc1C[*:2])[*:1]]}$PEPTIDE1,CHEM1,1:R1-1:R1|PEPTIDE1,CHEM1,6:R3-1:R2$$$V2.0) and `CC(C)C[C@@H]1NC(=O)[C@H]([C@@H](C)O)NC(=O)[C@H](CC(=O)O)NC(=O)[C@H](CO)NC(=O)[C@H](CCCNC(=N)N)N(C)C(=O)c2ccccc2CSC[C@@H](C(=O)N[C@@H](Cc2c[nH]c3ccccc23)C(=O)N[C@@H](CCC(=O)O)C(=O)N[C@H](CCCCN)C(N)=O)NC1=O` [compound 55] (HELM PEPTIDE1{[meR].S.D.T.L.C.W.E.[dK].[am]}|CHEM1{[O=C(c1ccccc1C[*:2])[*:1]]}$PEPTIDE1,CHEM1,1:R1-1:R1|PEPTIDE1,CHEM1,6:R3-1:R2$$$V2.0) fall in the same range of pIC50: 6.00 to 7.00 for the first, 6.00 to 7.00 for the second.

`CC(=O)NCCCC[C@@H](NC(=O)[C@@H](CCC(=O)O)NC(=O)[C@H](Cc1ccc(O)cc1)NC(=O)[C@H]1NC(=O)[C@H](CC(C)C)NC(=O)[C@H]([C@@H](C)O)NC(=O)[C@H](CC(=O)O)NC(=O)[C@H](CO)NC(=O)[C@H](CCCNC(=N)N)N(C)C(=O)c2ccccc2CSC1(C)C)C(N)=O` [compound 91] (HELM PEPTIDE1{[meR].S.D.T.L.[Pen].Y.[dE].[dK].[am]}|PEPTIDE2{[ac]}|CHEM1{[O=C(c1ccccc1C[*:2])[*:1]]}$PEPTIDE1,PEPTIDE2,9:R3-1:R2|PEPTIDE1,CHEM1,1:R1-1:R1|PEPTIDE1,CHEM1,6:R3-1:R2$$$V2.0) gave a pIC50 of 6.00 to 7.00.

Same assay, conditions: thioether peptide dimers, Table 7; read-out: Cell-Adhesion A4B7

`CC(C)C[C@@H]1NC(=O)[C@H]([C@@H](C)O)NC(=O)[C@H](CC(=O)O)NC(=O)[C@H](CO)NC(=O)[C@H](CCCNC(=N)N)N(C)C(=O)c2ccccc2CSC(C)(C)[C@@H](C(=O)N[C@@H](Cc2cccc3ccccc23)C(=O)N[C@@H](CCC(=O)O)C(=O)N[C@H](CCCCNC(=O)COCC(=O)NCCCC[C@@H](NC(=O)[C@H](CCC(=O)O)NC(=O)[C@H](Cc2cccc3ccccc23)NC(=O)[C@H]2NC(=O)[C@H](CC(C)C)NC(=O)[C@H]([C@@H](C)O)NC(=O)[C@H](CC(=O)O)NC(=O)[C@H](CO)NC(=O)[C@H](CCCNC(=N)N)N(C)C(=O)c3ccccc3CSC2(C)C)C(N)=O)C(N)=O)NC1=O` [compound 167] (I: [NMeR]SDTL[Pen][1Nal]E[dK]-NH2 / II: [NMeR]SDTL[Pen][1Nal]E[dK]-NH2; linker I:9-II:9 via Diglycolyl; linker I:N-I:6, II:N-II:6 via X1) and `CC(C)C[C@@H]1NC(=O)[C@H]([C@@H](C)O)NC(=O)[C@H](CC(=O)O)NC(=O)[C@H](CO)NC(=O)[C@H](CCCNC(=N)N)N(C)C(=O)c2ccccc2CSC(C)(C)[C@@H](C(=O)N[C@@H](Cc2ccc(C(F)(F)F)cc2)C(=O)N[C@@H](CCC(=O)O)C(=O)N[C@H](CCCCNC(=O)COCC(=O)NCCCC[C@@H](NC(=O)[C@H](CCC(=O)O)NC(=O)[C@H](Cc2ccc(C(F)(F)F)cc2)NC(=O)[C@H]2NC(=O)[C@H](CC(C)C)NC(=O)[C@H]([C@@H](C)O)NC(=O)[C@H](CC(=O)O)NC(=O)[C@H](CO)NC(=O)[C@H](CCCNC(=N)N)N(C)C(=O)c3ccccc3CSC2(C)C)C(N)=O)C(N)=O)NC1=O` [compound 166] (I: [NMeR]SDTL[Pen][Phe(4-CF3)]E[dK]-NH2 / II: [NMeR]SDTL[Pen][Phe(4-CF3)]E[dK]-NH2; linker I:9-II:9 via Diglycolyl; linker I:N-I:6, II:N-II:6 via X1) cannot be ordered by pIC50: > 7.60 for the first, > 7.60 for the second.

Work on `CC(C)C[C@@H]1NC(=O)[C@H]([C@@H](C)O)NC(=O)[C@H](CC(=O)O)NC(=O)[C@H](CO)NC(=O)[C@H](CCCNC(=N)N)N(C)C(=O)c2ccccc2CSCC[C@@H](C(=O)N[C@@H](Cc2c[nH]c3ccccc23)C(=O)N[C@@H](CCC(=O)O)C(=O)N[C@H](CCCCNC(=O)COCC(=O)NCCCC[C@@H](NC(=O)[C@H](CCC(=O)O)NC(=O)[C@H](Cc2c[nH]c3ccccc23)NC(=O)[C@@H]2CCSCc3ccccc3C(=O)N(C)[C@@H](CCCNC(=N)N)C(=O)N[C@@H](CO)C(=O)N[C@@H](CC(=O)O)C(=O)N[C@@H]([C@@H](C)O)C(=O)N[C@@H](CC(C)C)C(=O)N2)C(N)=O)C(N)=O)NC1=O` [compound 157] (I: [NMeR]SDTL[hCys]WE[dK]-NH2 / II: [NMeR]SDTL[hCys]WE[dK]-NH2; linker I:9-II:9 via Diglycolyl; linker I:N-I:6, II:N-II:6 via X1) yielded a pIC50 of 7.00 to 7.60.
